Data taken from patent US12435061B2 (priority 2020, dated 2025).
Values after ≈ are worked out from the molar mass of the structure shown. Read-outs that look alike come from different tables or passages of the source.

What was measured:
hTRPV3 = hTRPV3 (Homo sapiens (Human), UniProt Q8NET8); test: Whole-cell patch clamp, hTRPV3 Phase 1 / Phase 2 currents; format: cell-based
How it was run: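 Currents are activated by 20 μM 2-APB or by perfusate at 28 °C or warmer, in Ringer's solution, and quantified at ±80 mV.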

[1] = Metabolic Stability assay, rat liver microsomes; format: in vitro ADME
Protocol: Metabolic Stability assay: The metabolic stability was determined by adding compound dissolved in DMSO to human or rat, liver microsomes. Briefly, assays were run with a starting concentration of 1 μM test article. The reaction was started by addition of NADPH regeneration components at 37° C. at which time an aliquot was immediately quenched in ice-cold acetonitrile/MeOH/H2O solution. Reaction mixture was incubated at 37° C. on a shaker, and additional aliquots were taken at 7, 15, 30 and 60 minutes. Following quench and centrifugation, samples were analyzed on HPLC/MS/MS.

[2] = Aqueous solubility assay in Normal Ringer Solution; conditions: Normal Ringer Solution; for solubility at 40 min: saline or isotonic, kinetic from dmso stock; for Solubility Ringer (nM): room temperature
Protocol: Following vortex and incubation for a sufficient time (e.g. 40 minutes at room temperature), solutions were filtered, quenched with acetonitrile, and analyzed by Liquid Chromotography. Solubility Limits were determined by comparison to a standard curve.

[3] = Phase 1 current, inward, whole-cell patch clamp, read-out: hTRPV3 Patch P1 Inwd
[4] = Phase 1 current, read-out: hTRPV3 (nM) (Phase 1)
[5] = Phase 2 current, inward, whole-cell patch clamp, read-out: hTRPV3 Patch P2 Inwd
[6] = Phase 2 current, read-out: hTRPV3 (nM) (Phase 2)
[7] = Phase 1 current, human TRPV3, read-out: hTRPV3 (nM) Phase 1

hTRPV3, sequence (Q8NET8 whole entry): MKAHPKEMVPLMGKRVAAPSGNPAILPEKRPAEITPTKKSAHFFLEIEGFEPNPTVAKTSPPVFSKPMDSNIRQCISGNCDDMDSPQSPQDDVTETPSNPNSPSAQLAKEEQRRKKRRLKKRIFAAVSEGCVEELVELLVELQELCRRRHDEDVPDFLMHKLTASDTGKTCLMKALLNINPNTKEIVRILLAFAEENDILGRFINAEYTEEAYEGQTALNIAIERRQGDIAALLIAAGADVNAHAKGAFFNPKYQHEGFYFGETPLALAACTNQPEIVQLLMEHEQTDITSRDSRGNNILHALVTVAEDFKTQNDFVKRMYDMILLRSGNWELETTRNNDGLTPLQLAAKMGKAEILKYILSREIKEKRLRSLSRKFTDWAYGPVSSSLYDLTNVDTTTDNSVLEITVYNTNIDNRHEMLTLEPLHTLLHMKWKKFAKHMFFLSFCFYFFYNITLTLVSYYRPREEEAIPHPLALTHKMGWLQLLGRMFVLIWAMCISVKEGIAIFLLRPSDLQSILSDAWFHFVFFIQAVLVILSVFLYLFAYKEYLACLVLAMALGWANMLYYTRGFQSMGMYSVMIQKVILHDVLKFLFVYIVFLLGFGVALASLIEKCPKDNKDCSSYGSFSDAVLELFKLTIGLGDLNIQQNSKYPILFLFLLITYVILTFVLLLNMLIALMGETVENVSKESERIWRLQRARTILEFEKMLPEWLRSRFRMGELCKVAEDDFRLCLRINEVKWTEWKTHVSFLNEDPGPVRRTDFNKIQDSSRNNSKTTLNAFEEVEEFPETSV

Row | Compound | IC50 (hTRPV3; [3]) [nM] | IC50 (hTRPV3; [4]) [nM] | IC50 (hTRPV3; [5]) [nM] | IC50 (hTRPV3; [6]) [nM] | half-life at 1 μM ([1]; read-out: LM T1/2 (min) (rat)) | solubility at 40 min [2] [µM] | Solubility Ringer (nM) [2] | IC50 (hTRPV3; hTRPV3 Patch P1 Inwd (nM)) [nM] | IC50 (hTRPV3; read-out: hTRPV3 (nM) (Phase 1)) | IC50 (hTRPV3; [7]) [nM] | half-life at 1 μM ([1]; read-out: LM T1/2 (min) rat) [min] | IC50 (hTRPV3; Phase 2 current, human TRPV3, read-out: hTRPV3 (nM) Phase 2) [nM]
1 | OCc1cc(Oc2ccccc2F)ccc1N1CC[C@H](Oc2ncccc2Cl)C1 [Compound 1-270, (S)-(2-(3-(3-chloropyridin-2-yloxy)pyrrolidin-1-yl)-5-(2-fluorophenoxy)phenyl)methanol] | < 10 | 9.39 | < 10 | 7.44 | 24.3 | 1 (≈ 0.415 µg/mL) |  |  |  |  |  | 
2 | CCc1ccccc1Oc1ccc(N2CC[C@H](Oc3ccccn3)C2)c(CO)c1 [Compound 1-275] | 10 to 100 | 24.8 |  |  | 22.8 | ~1 (≈ 0.39 µg/mL) |  |  |  |  |  | 
3 | Cc1ccc(C(=O)c2ccc(N3CC[C@H](Oc4ncccc4Cl)C3)c(CO)c2)cc1 [Compound 1-277, (S)-(4-(3-(3-chloropyridin-2-yloxy)pyrrolidin-1-yl)-3-(hydroxymethyl)phenyl)(p-tolyl)methanone] | 10 to 100 | 63 |  |  | 15.7 | 0.47 (≈ 0.199 µg/mL) |  |  |  |  |  | 
4 | O=C(c1ccc(F)cc1)c1ccc(N2CC[C@H](Oc3ncccc3Cl)C2)c(CO)c1 [Compound 1-279, (S)-(4-(3-(3-chloropyridin-2-yloxy)pyrrolidin-1-yl)-3-(hydroxymethyl)phenyl)(4-fluorophenyl)methanone] | 10 to 100 | 56.9 |  |  | 18.4 | 1.2 (≈ 0.512 µg/mL) |  |  |  |  |  | 
5 | Cc1cccc(C(=O)c2ccc(N3CC[C@H](Oc4ncccc4Cl)C3)c(CO)c2)c1 [Compound 1-282, (S)-(4-(3-(3-chloropyridin-2-yloxy)pyrrolidin-1-yl)-3-(hydroxymethyl)phenyl)(m-tolyl)methanone] | 10 to 100 | 62.3 |  |  | 16.1 | ~0.67 (≈ 0.283 µg/mL) |  |  |  |  |  | 
6 | COC(c1ccc(F)cc1)c1ccc(N2CC[C@H](Oc3ncccc3Cl)C2)c(CO)c1 (stereo partly drawn) [Compound 1-289, (2-((S)-3-(3-chloropyridin-2-yloxy)pyrrolidin-1-yl)-5-((4-fluorophenyl)(methoxy)methyl)phenyl)methanol] | 10 to 100 | 66.2 |  |  | 9.22 | ~1.75 (≈ 0.775 µg/mL) |  |  |  |  |  | 
7 | COCc1ccccc1Oc1ccc(N2CC[C@H](Oc3ncccc3Cl)C2)c(CCO)c1 [Compound 1-297, (S)-2-(2-(3-(3-chloropyridin-2-yloxy)pyrrolidin-1-yl)-5-(2-(methoxymethyl)phenoxy)phenyl)ethanol] | 10 to 100 | 56.6 |  |  | 7.44 | 1.4 (≈ 0.637 µg/mL) |  |  |  |  |  | 
8 | OCc1cc(Oc2cccc(Cl)c2)ccc1N1CC[C@H](Oc2ccccn2)C1 [Compound 1-304] | 10 to 100 | 55.8 |  |  | 17.5 | ~1 (≈ 0.397 µg/mL) |  |  |  |  |  | 
9 | OCCc1cc(Oc2ccccc2F)ccc1N1CC[C@H](Oc2ncccc2F)C1 [Compound 1-313, (S)-2-(5-(2-fluorophenoxy)-2-(3-(3-fluoropyridin-2-yloxy)pyrrolidin-1-yl)phenyl)ethanol] | 10 to 100 | 72.5 | 10 to 100 | 71.3 | 9.29 | ~2 (≈ 0.825 µg/mL) |  |  |  |  |  | 
10 | CC(C)c1ccccc1Oc1ccc(N2CC[C@H](Oc3ccccn3)C2)c(CO)c1 [Compound 1-316] | < 10 | 7.77 |  |  | 18.9 | > 4 |  |  |  |  |  | 
11 | CC(C)c1ccccc1Oc1ccc(N2CC[C@H](Oc3ccccn3)C2)c(CCO)c1 [Compound 1-317] | 10 to 100 | 20.8 |  |  | 12.1 |  | BLQ |  |  |  |  | 
12 | CC(C)c1ccccc1Oc1ccc(N2CC[C@H](Oc3ncccc3Cl)C2)c(CCO)c1 [Compound 1-327, (S)-2-(2-(3-(3-chloropyridin-2-yloxy)pyrrolidin-1-yl)-5-(2-isopropylphenoxy)phenyl)ethanol] |  |  |  |  | 14.6 |  | BLQ | 10 to 100 | 15.9 |  |  | 
13 | CCc1c(Cl)ncnc1Oc1ccc(N2CC[C@H](Oc3ncccc3Cl)C2)c(CO)c1 [Compound 1-358, (S)-(5-(6-chloro-5-ethylpyrimidin-4-yloxy)-2-(3-(3-chloropyridin-2-yloxy)pyrrolidin-1-yl)phenyl)methanol] | 100 to 1000 | 174 |  |  | 16.7 | ~2.1 (≈ 0.969 µg/mL) |  |  |  |  |  | 
14 | NC(=O)c1cc(-c2ccccc2)ccc1N1CC[C@H](Nc2ncccc2Cl)C1 [Compound 1-377, (S)-4-(3-(3-chloropyridin-2-ylamino)pyrrolidin-1-yl)biphenyl-3-carboxamide] | 100 to 1000 | 360 | 100 to 1000 | 318 | 35.6 | > 3.2 |  |  |  |  |  | 
15 | CCc1ccccc1Oc1ccc(N2CC[C@H](Nc3ncccc3Cl)C2)c(CO)c1 [Compound 1-380, (S)-(2-(3-(3-chloropyridin-2-ylamino)pyrrolidin-1-yl)-5-(2-ethylphenoxy)phenyl)methanol] | 10 to 100 | 25.6 |  |  | 20.9 |  | BLQ |  |  |  |  | 
16 | Cc1ccccc1Oc1ccc(N2CC[C@H](Nc3ncccc3Cl)C2)c(CO)c1 [Compound 1-383, (S)-(2-(3-(3-chloropyridin-2-ylamino)pyrrolidin-1-yl)-5-(o-tolyloxy)phenyl)methanol] | 10 to 100 | 12.6 |  |  | 31.4 | ~0.35 (≈ 0.143 µg/mL) |  |  |  |  |  | 
17 | OCCc1cc(C(O)c2ccccc2Cl)ccc1N1CC[C@H](Nc2ccc(F)cn2)C1 (stereo partly drawn) [Compound 1-390, 2-(5-((2-chlorophenyl)(hydroxy)methyl)-2-((S)-3-(5-fluoropyridin-2-ylamino)pyrrolidin-1-yl)phenyl)ethanol] | 100 to 1000 | 219 |  |  | 7.23 | > 13.6 |  |  |  |  |  | 
18 | CCc1ccccc1Oc1ccc(N2CC[C@H](OCc3ncccc3C)C2)c(CO)c1 [Compound 1-398] |  | 187 |  | 64.8 | 5.19 | ~1.4 (≈ 0.586 µg/mL) |  |  |  |  |  | 
19 | CC(C)c1ccccc1-c1ccc(C2CCN(C(=O)c3ccc(Cl)cn3)C2)c(CO)c1 (stereo not shown) [Compound 2-30] | < 10 |  |  |  |  | ~3.7 (≈ 1.61 µg/mL) |  |  |  | 2.68 | 13.9 | 
20 | CC(C)c1ccccc1-c1ccc(C2CCN(C(=O)c3ccc(Cl)cn3)C2)c(C(N)=O)c1 (stereo not shown) [Compound 2-35] | 10 to 100 |  | 10 to 100 |  |  | ~3.3 (≈ 1.48 µg/mL) |  |  |  | 61.7 | 7.16 | 64.3
21 | CCc1ccccc1-c1ccc(C2CCN(C(=O)c3ccc(C)cn3)C2)c(CO)c1 (stereo not shown) [Compound 2-50, (3-(2′-ethyl-3-(hydroxymethyl)biphenyl-4-yl)pyrrolidin-1-yl)(5-methylpyridin-2-yl) methanone] | 10 to 100 |  |  |  |  | ~3.9 (≈ 1.56 µg/mL) |  |  |  | 89.8 | 8.67 | 
22 | CCc1ccccc1-c1ccc(C2CCN(C(=O)c3ccc(Cl)cn3)C2)c(CO)c1 (stereo not shown) [Compound 2-51, (5-chloropyridin-2-yl)(3-(2′-ethyl-3-(hydroxymethyl)biphenyl-4-yl)pyrrolidin-1-yl) methanone] | < 10 |  |  |  |  | ~5.3 (≈ 2.23 µg/mL) |  |  |  | 7.37 | 14.4 | 
23 | CCc1cc(C)ccc1-c1ccc(C2CCN(C(=O)c3ccc(Cl)cn3)C2)c(CO)c1 (stereo not shown) [Compound 2-66, (5-chloropyridin-2-yl)(3-(2′-ethyl-3-(hydroxymethyl)-4′-methylbiphenyl-4-yl)pyrrolidin-1-yl)methanone] | 10 to 100 |  |  |  |  | ~1.9 (≈ 0.826 µg/mL) |  |  |  | 16.5 | 24.9 | 
